Source: article PMC6254985 (Journal of Experimental Pharmacology, 2018)
Where a name gives a salt, the structure may show the parent alone. Read-outs that look alike come from different tables or passages of the source.

Legend:
human D2L receptor = human D2L receptor (Homo sapiens, UniProt P14416); assay: [35S]GTPγS binding assay, antagonist activity, D2L; format: biochemical
human D2S receptor = human D2S receptor (Homo sapiens, UniProt P14416); assay: [35S]GTPγS binding assay, antagonist activity, D2S; format: biochemical
Chain of human D2S receptor (P14416 1-414 isoform P14416-2): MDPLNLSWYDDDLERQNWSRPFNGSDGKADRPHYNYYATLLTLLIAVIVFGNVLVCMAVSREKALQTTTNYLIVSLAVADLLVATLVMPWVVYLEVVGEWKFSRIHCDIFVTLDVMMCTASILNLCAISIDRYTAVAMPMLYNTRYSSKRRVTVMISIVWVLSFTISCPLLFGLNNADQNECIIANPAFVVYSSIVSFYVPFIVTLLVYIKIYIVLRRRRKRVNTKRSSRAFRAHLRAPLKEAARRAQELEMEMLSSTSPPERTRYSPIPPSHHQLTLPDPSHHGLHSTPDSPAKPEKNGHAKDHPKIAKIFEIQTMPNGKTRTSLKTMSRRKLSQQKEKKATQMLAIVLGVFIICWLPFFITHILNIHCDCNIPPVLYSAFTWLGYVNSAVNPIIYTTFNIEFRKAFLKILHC

[1] = cited from earlier work
[2] = tested on: alpha-adrenergic receptors; assay: Inhibition of alpha-adrenergic receptors
[3] = tested on: 5-HT2A, 5-HT2B, 5-HT2C, 5-HT6, 5-HT7, D1, D2S, D2L, D3, or D5; assay: Agonist effect in the presence of dopamine or norepinephrine; format: cell-based

Chain of human D2L receptor (P14416 whole entry): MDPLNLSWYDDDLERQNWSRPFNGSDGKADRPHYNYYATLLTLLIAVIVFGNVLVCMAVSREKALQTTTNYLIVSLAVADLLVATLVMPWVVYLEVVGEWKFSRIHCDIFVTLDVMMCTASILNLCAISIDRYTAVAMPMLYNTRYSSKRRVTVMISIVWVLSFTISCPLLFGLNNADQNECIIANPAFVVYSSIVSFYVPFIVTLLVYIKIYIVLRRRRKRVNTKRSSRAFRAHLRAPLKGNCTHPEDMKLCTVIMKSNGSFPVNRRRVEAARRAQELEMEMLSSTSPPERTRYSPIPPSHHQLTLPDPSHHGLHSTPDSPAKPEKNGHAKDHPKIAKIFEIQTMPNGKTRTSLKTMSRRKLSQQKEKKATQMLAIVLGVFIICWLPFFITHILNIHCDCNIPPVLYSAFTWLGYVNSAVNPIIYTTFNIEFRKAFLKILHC

| SMILES | Antagonist potency of R(−) relative to S(+) enantiomer, D2L (human D2L receptor; based on the IC50) [fold] | IC50 (human D2L receptor; read-out: IC50 of enantiomers, D2L, [35S]GTPγS binding assay) [nM] | Antagonist potency of R(−) relative to S(+) enantiomer, D2S (human D2S receptor; based on the IC50) | IC50 (human D2S receptor; read-out: IC50 of enantiomers, D2S, [35S]GTPγS binding assay) [nM] | Parkinsonism or extrapyramidal symptoms [1] | Propensity for weight gain [1] | Inhibition of the alpha-adrenergic receptors [2] | IC50 (human D2S receptor) [nM] | Agonist effect in the presence of dopamine or norepinephrine [3] |
| --- | --- | --- | --- | --- | --- | --- | --- | --- | --- |
| CCc1c(C)[nH]c2c1C(=O)[C@@H](CN1CCOCC1)CC2 (single isomer, unassigned) [R(−) enantiomer] | ~300 | 21 | ~ 100 fold | 48 |  |  |  |  |  |
| CCc1c(C)[nH]c2c1C(=O)C(CN1CCOCC1)CC2 (stereo not drawn) [SPN-810M, Molindone Hydrochloride] |  |  |  |  | little to no parkinsonism or extrapyramidal symptoms | low propensity for weight gain | no significant inhibition | 84.4 | No agonist effect |
